Results: patent US20100280118A1, “Methods for treating substance dependence” (The Scripps Research Institute, priority 2007, published 2010)
Marks after values point to notes of the source that are not given here.

Legend:
[1] = test system: outpatients with current cannabis dependence; assay: 12-week randomized, double-blind, placebo-controlled trial of gabapentin 1200 mg/d in cannabis dependence
[2] = test system: cue-reactive, alcohol-dependent individuals; assay: Cue reactivity study, 1 week gabapentin 1200 mg vs placebo, alcohol and affective cue-induced craving; type: in vivo, human
Protocol: This Example describes the results of a study to examine the effectiveness of gabapentin 1200 mg for attenuating symptoms of protracted abstinence in a non treatment-seeking sample of cue-reactive, alcohol-dependent individuals. Subjects were 33 paid volunteers with current DSM-IV alcohol dependence and a strength of craving rating 1σ or greater for alcohol than water cues. Subjects were randomly assigned to gabapentin or placebo for 1-week and then participated in a within-subjects trial where each was exposed to standardized sets of pleasant, neutral, and unpleasant visual stimuli followed by alcohol or water cues. A key aspect of the study design is exposure to alcohol cues (sight and smell of the subject's favorite alcoholic beverage) without consumption. Alcohol consumption would be expected to mask the effects of any medication that targets symptoms of protracted abstinence, as either or both could attenuate such symptoms; the effects of alcohol and the drug to be tested would therefore be inextricably confounded. The design is therefore relatively novel in combining elicitation of craving while inducing both positive and negative affect (along with interaction effects) with non-consumptive alcohol cue exposure. As such it may be particularly well-suited for testing the effectiveness of pharmacological treatments intended to normalize the neurobiological imbalances associated with protracted abstinence in alcoholics.
Subject enrollment: The study was conducted at the University of Miami School of Medicine, Miami, Fla. and approved by that institution's Institutional Review Board as conforming to the ethical standards of the 1964 Declaration of Helsinki. Subjects provided written informed consent prior to participation. Subjects were non treatment-seeking paid volunteers recruited primarily through advertisements, meeting the Diagnostic and Statistical Manual of Mental Disorders, 4th Edition (DSM-IV; American Psychiatric Association, 1994) criteria for current alcohol dependence, abstinent from alcohol on the day of the study, as verified by Breath Alcohol Concentration (BAC), not in acute withdrawal as verified by a Clinical Institute Withdrawal Assessments for Alcohol (CIWA-Ar; Sullivan et al., Br J Addict 84:1353-1357, 1989) score of <8, and meeting the definition of “cue reactive”. An individual was considered cue reactive if his or her “strength of craving” score under a neutral affect condition (see Study Overview below) was ≧1 standard deviation (3 VAS rating scale points; see measures discussion) greater for alcohol than for water cues during a mini cue reactivity session. This is similar to the criterion described by Rubonis et al. (J. Stud. Alcohol. 55:487-494, 1994) to classify cue reactors. Exclusionary criteria consisted of clinically significant medical or psychiatric disorders including depression, anxiety, or dependence on substances other than alcohol and nicotine.
Study Overview and Experimental Design: Subjects meeting admission criteria were randomized to receive gabapentin 1200 mg or placebo. Because image-based affective cue reactivity was not as strong as we had anticipated, to improve statistical power we augmented the control group with untreated individuals from three otherwise-similar lab studies. Criteria for participation were the same in all cases. Dosages (matched in the placebo condition) were titrated as follows: 300 mg morning on day 1, 300 mg morning and also evening on day 2, 300 mg morning, midday and evening on day 3, and 300 mg morning and midday followed by 600 mg evening for days 4-7. On day 7 of double-blind medication, overall measures of mood, sleep, and craving were assessed. This one-week interval of chronic dosing is intended to model and predict the critical first week on medication in a Phase II or III clinical trial, when participants' experiences with sleep and mood, or side effects, can dramatically affect treatment adherence and risk for dropout. […]

[3] = test system: outpatients with alcohol dependence; assay: 12-week double-blind, placebo-controlled, dose-ranging study of gabapentin 900 or 1800 mg/day in alcohol dependence; type: in vivo, human; conditions: for Cohen's d, drinks per drinking day: interim analysis
Protocol: This example describes the study of gabapentin treatment of subjects suffering from alcohol dependence. A 12-week, double-blind, placebo-controlled, dose-ranging study was conducted with random assignment to gabapentin 900 mg/day, 1800 mg/day, or placebo. Subjects are outpatients with alcohol dependence. The 3 pharmacological treatment conditions were administered in conjunction with manual-guided behavioral counseling that incorporates strategies to increase motivation, abstinence, and medication compliance. Counseling and research assessments occurred weekly throughout the 12-week treatment phase. Post-treatment assessments occurred at Weeks 13, 24, and 36.
The criteria for inclusion are as follows: (1) Males or females over 18 years of age; (2) Meets DSM-IV criteria for current alcohol dependence; (3) Seeking research-based outpatient treatment for alcohol problems; (4) Abstinent from alcohol a minimum of 3 days to a maximum of 30 days at the time of randomization; and (5) Willing to attend 12 weekly study visits and 3 follow-up visits. The criteria for exclusion are as follows: (1) Currently meets DSM-IV criteria for dependence on substances other than alcohol, nicotine or caffeine; (2) Significant medical disorders that will increase potential risk or interfere with study participation, e.g., plasma […] >1.4 mg/dL; (3) Sexually active female subjects with childbearing potential who are pregnant, nursing or refuse to use a reliable method of birth control; (4) Meets DSM-IV criteria for a major AXIS I disorder other than alcohol dependence, including depressive and anxiety disorders, and is in need of, or currently undergoing, pharmacotherapy; (5) Inability to understand and/or comply with the provisions of the protocol and consent form; (6) Treatment with an investigational drug during the previous month; (7) Sensitivity to study drug as evidenced by adverse drug experiences with gabapentin or its ingredients; (8) Ongoing treatment with disulfuram (Antabuse), naltrexone (ReVia®), acamprosate (Campral®) or other medications that may affect study outcomes, e.g., anticonvulsants; (9) More than one month of abstinence prior to randomization; (10) Subjects who require medicated detoxification (Note: Subjects may proceed with study evaluation after completion of detoxification); (11) Subjects for whom treatment of alcoholism is being mandated by a legal authority; (12) Unable to identify at least one collateral informant to verify drinking status at baseline and monthly during study, and to assist in tracking subjects for follow-up assessments; or (13) Subjects who plan to move out of the geographic area served by the Clinic prior to study completion.
Primary outcome of the treatment was assesses with the following measures. Timeline Followback Interview (TLFB; Sobell and Sobell, 1992) provides quantity and frequency estimates of alcohol intake at baseline and throughout the study using a standard drinks format (Research Nurse, 20 minutes at screening and Week 24 and 36 follow-up visits, 5 minutes at weekly study visits). […] Therefore, TLFB data is supported by weekly breathalyzers and monthly collateral informant reports and GGT. If unresolved inconsistencies between sources occur, then the most negative outcome will be assumed accurate.
Secondary outcome of the treatment was assessed with the following measures. Alcohol Craving Questionnaire-Short Form (ACQ-SF; Singleton et al., 1994) provides a quick assessment of current drinking urges, difficulty resisting urges and anticipation of positive outcome or relief from negative affective state by drinking (baseline and every study visit, self report, 1-2 minutes). Beck Depression Inventory (BDI; Beck et al., 1961) is a self-rating of severity of depressive symptoms (baseline and every study visit, 5 minutes). Gamma glutamyl transferase (GGT) is used as a biochemical marker of alcohol abstinence or relapse. […]

[4] = test system: non treatment-seeking volunteers with current cannabis and alcohol dependence; assay: Pilot laboratory study, one week gabapentin 1200 mg/d vs placebo; type: in vivo, human
Protocol: This Example describes treatment of subjects suffering from cannabis dependence with gabapentin. Subjects with DSM-IV cannabis dependence were enrolled in a clinical study of treatment with gabapentin. Earlier, in a pilot laboratory study, the safety and efficacy of gabapentin 1200 mg/d in non treatment-seeking volunteers with current cannabis and alcohol dependence involving were examined in one week of chronic dosing with double-blind, randomly assigned active drug or placebo. […] The results lend support to: 1) the safety and tolerability of our drug titration schedule and the steady state dose of gabapentin 1200 mg/d in outpatients with cannabis dependence; 2) the efficacy of gabapentin 1200 mg/d in treating disturbed sleep, a key symptom of cannabis withdrawal; and 3) our ability to recruit a sample of subjects with cannabis dependence who are willing to participate in clinical research involving medication. Based on the results from this pilot study, subjects with only cannabis dependence were then recruited and treated with gabapentin, as detailed below.

[5] = % of subjects, gabapentin 1200 mg/d
[6] = gabapentin 1200 mg vs placebo, day 7, alcohol vs water cue, 0-20 rating
[7] = gabapentin 1200 mg vs placebo, day 7, alcohol vs water cue, VAS 0-20
[8] = gabapentin 1200 mg vs placebo, day 7, negative vs neutral affect cue, 0-20 rating
[9] = gabapentin 1200 mg vs placebo, day 7, negative vs neutral affect cue, VAS 0-20
[10] = gabapentin 1200 mg vs placebo, day 7, positive vs neutral affect cue, 0-20 rating
[11] = gabapentin 1200 mg vs placebo, day 7, positive vs neutral affect cue, VAS 0-20

NCC1(CC(=O)O)CCCCC1 [gabapentin, (1-aminomethyl)-1-cyclohexaneacetic acid]
deaths or terminations due to drug-related adverse events ([1]; 12 weeks): no deaths or terminations due to drug-related adverse events
Adverse event: Abdominal Pain [1, 5]: 25%
Adverse event: Decreased Appetite [1, 5]: 10%
Adverse event: Depression [1, 5]: 30%
Adverse event: Dizziness [1, 5]: 0%
Adverse event: Fatigue [1, 5]: 15%
Adverse event: Headache [1, 5]: 20%
Adverse event: Increased Appetite [1, 5]: 15%
Adverse event: Nausea [1, 5]: 15%
Adverse event: Nervousness [1, 5]: 25%
Adverse event: Other [1, 5]: 5%
average severity of AE's ([1]; both treatment groups, 2=mild): 2.0±0.7
number of AE's complained of per subject ([1]; gabapentin 1200 mg/d, 12 weeks, p=0.11 vs placebo): 4.0±6.7
symptoms generating the drug-placebo difference in symptom counts ([2]; 1 week, gabapentin 1200 mg vs placebo): dizziness (χ^2(1)=6.1, p<0.02) and fatigue
total symptom counts over the week on medication (mean) ([2]; SAFTEE-G, 1 week, gabapentin 1200 mg, standard deviation 2.7, n=30 assessed): 3.3
Bev x Gaba, Feel strong emotion (estimated model coefficient) [2, 6]: 1.15
Bev x Gaba, Like beverage (estimated model coefficient) [2, 6]: −0.25
Bev x Gaba, SAM Arousal (estimated model coefficient) [2, 6]: −1.79
Bev x Gaba, SAM Dominance (estimated model coefficient) [2, 6]: 0.81
Bev x Gaba, SAM Valence (estimated model coefficient) [2, 6]: 3.28*
Bev x Gaba, Craving Difficult to turn down (estimated model coefficient) [2, 7]: −1.31^††
Bev x Gaba, Craving Drink Now (estimated model coefficient) [2, 7]: −1.96^†
Bev x Gaba, Craving Make Things Perfect (estimated model coefficient) [2, 7]: 0.23
Bev x Gaba, Craving Strength (estimated model coefficient) [2, 7]: −2.16^†
Aff− x Gaba, Feel strong emotion (estimated model coefficient) [2, 8]: −1.29
Aff− x Gaba, Like beverage (estimated model coefficient) [2, 8]: 0.98
Aff− x Gaba, SAM Arousal (estimated model coefficient) [2, 8]: −4.92*
Aff− x Gaba, SAM Dominance (estimated model coefficient) [2, 8]: 1.30
Aff− x Gaba, SAM Valence (estimated model coefficient) [2, 8]: 1.25
Aff− x Gaba, Craving Difficult to turn down (estimated model coefficient) [2, 9]: 1.26
Aff− x Gaba, Craving Drink Now (estimated model coefficient) [2, 9]: 0.58
Aff− x Gaba, Craving Make Things Perfect (estimated model coefficient) [2, 9]: 0.20
Aff− x Gaba, Craving Strength (estimated model coefficient) [2, 9]: 0.96
Aff+ x Gaba, Feel strong emotion (estimated model coefficient) [2, 10]: −1.08
Aff+ x Gaba, Like beverage (estimated model coefficient) [2, 10]: −0.04
Aff+ x Gaba, SAM Arousal (estimated model coefficient) [2, 10]: −3.22^†
Aff+ x Gaba, SAM Dominance (estimated model coefficient) [2, 10]: 0.80
Aff+ x Gaba, SAM Valence (estimated model coefficient) [2, 10]: 0.21
Aff+ x Gaba, Craving Difficult to turn down (estimated model coefficient) [2, 11]: −1.34^††
Aff+ x Gaba, Craving Drink Now (estimated model coefficient) [2, 11]: 0.16
Aff+ x Gaba, Craving Make Things Perfect (estimated model coefficient) [2, 11]: 0.44
Aff+ x Gaba, Craving Strength (estimated model coefficient) [2, 11]: 0.25
ARCI scores on five drug-of-abuse groups (abuse potential) ([2]; gabapentin vs. placebo, n=28): no statistically significant differences
BDI total score ([3]; 900 mg/d vs placebo): no significant effect
sleep disturbance (PSQI), effect size d ([3]; 900 mg/d vs placebo, p<0.01): −0.50
daytime dysfunction (PSQI), effect size d ([3]; 900 mg/d vs placebo, p<0.05): −0.27
Cohen's d, drinks per drinking day ([3]; 900 mg/d vs placebo): 0.82
negative affective symptoms (BDI), effect size d ([3]; 1800 mg/d relative to placebo, p<0.05): 0.33
daytime dysfunction (PSQI), effect size d ([3]; 1800 mg/d vs placebo, p<0.01): −0.43
Cohen's d, drinks per drinking day ([3]; 1800 mg/d vs placebo): 0.71
time the beneficial effect was sustained after completing treatment ([3]; complete study (n=150)): up to 12 weeks
deaths or serious drug-related adverse events ([3]; throughout the study): no deaths or serious drug-related adverse events
subjective sleep quality or PSQI summary score ([3]; treatment vs placebo, trend for 900 mg/d, p<0.08): no significant effect
CBC, LFT, or urinalysis values [4]: no change from baseline
adverse drug complaints [4]: no adverse drug complaints of more than mild severity
